Marks after values point to notes of the source that are not given here.
Assays:
[1] = design: method as in doi:10.1021/la981295l; details: cited from earlier work
[2] = Apparent pKa by direct titration with NaOH; assay type: physicochemical; details: aqueous solution, concentration above the minimum aggregation concentration; pH at semi-equivalence point
Procedure: In order to determine the ionization state of these gemini surfactants at the pH used to investigate their biological properties, the apparent acid pKa was determined for each of them. The pKap value has been determined by means of a direct titration with NaOH of an aqueous solution of each compound. The surfactant concentrations used were in all cases higher than the minimum aggregation concentration, thus avoiding possible deviations in the pK value due to the monomer–aggregate balance. The pKap values can be estimated from the pH at the semi-equivalence point that is reached when the molar ratio of protonated and non-protonated species is 1:1. In these conditions, we have that the pH = pKa.
The pKa value of each compound has been determined by means of a direct titration with NaOH of an aqueous solution of each compound. The pH was measured using the pH electrode Thermo Electron Corporation ORION 8103SC and the temperature was controlled by a thermostatic bath, Heto CBN 8-30. The pKa values can be estimated from the pH at the semi-equivalence point, which contains a 1:1 molar ratio of protonated and non-protonated species; at this point, pH = pKap.

[3] = design: method as in doi:10.1021/la981295l; details: cited from earlier work; remark: listed apart in the source
[4] = tested on: methicillin-resistant Staphylococcus aureus (MRSA) ATCC 43300 biofilm; experiment: Biofilm eradication, crystal violet; assay type: cell-based; details: at 32 μg/mL
Procedure: (§1) The ability of these geminis to disperse and eradicate biofilms once formed on the propylene surfaces of the microtiter plates was evaluated using the same bacterial strains. […] The susceptibility of both biofilms against the tested surfactants was similar. At a low concentration of 32 μg/mL, C3(CA)2 and C3(LA)2 were able to eradicate around 60–70% of preformed biofilm; however, at this concentration, the […] hydrophobic compound, C3(OA)2, eradicated less than 30% of biofilm. At high concentrations, the eradication percentage is similar for all alkyl chains. […] In this case, at low concentrations, there is not a clear dependence between the antibiofilm properties and the spacer; however, at a high concentration, the best effectivity was obtained for the longer spacer chains.
(§2) Antibiofilm activity was assessed against biofilm-producing strains of methicillin-resistant Staphylococcus aureus (MRSA) ATCC 43300 and Pseudomonas aeruginosa PAO1. Biofilm inhibition and eradication capacities of the gemini surfactants were evaluated against adherent bacterial biofilms grown in 96-well microtiter plates. Bacteria were grown overnight in tryptic soy agar at 37 °C for 24 h. The bacteria were suspended in lysogeny broth with glucose (1%) at 1.5 × 10^8 CFU/mL.
(§3) Biofilm eradication procedure: For mature biofilm formation, 200 μL of the diluted bacterial suspension was added to each well in a 96-well microplate and incubated at 37 °C for 24 h. The wells were gently rinsed with phosphate-buffered saline (PBS) and 200 μL of the corresponding gemini surfactant solution was added to each well and incubated again at 37 °C for 24 h. Two-fold serial dilutions of the gemini surfactant were used (4–128 μg/mL). After the plates were air dried, the biofilms were stained with 50 μL of 0.1 of % crystal violet for 25 min. The plates were rinsed with water and then 150 μL of 96% ethanol containing 10% acetic acid was added to all 96-well plates to dissolve the remaining crystal violet-stained biofilm. The absorbance value was recorded at 570 nm. Each assay was conducted at least three times and the results were averaged.

[5] = tested on: Pseudomonas aeruginosa PAO1 biofilm; experiment: Biofilm eradication, crystal violet; assay type: cell-based; details: P. aeruginosa PAO1, at 32 μg/mL
Procedure: as §1, §2, §3

[6] = tested on: Gram-positive and Gram-negative bacteria; experiment: Minimum inhibitory concentration (MIC), broth microdilution; assay type: cell-based; details: planktonic bacteria, 24 h at 37 °C, values only in Figure 2
Source text: The Gram-positive bacteria tested include some problematic microorganisms such us L. monocytogenes; these bacteria cause listeriosis, a serious disease that has grown considerably in industrialized countries due to the increased ratio of immunosuppressed persons and the extensive use of refrigerated food. We have also tested the effectivity of these surfactants against methicillin-resistant Staphylococcus aureus (MRSA), which is known as a major cause of hospital-acquired infections and, at this time, is a remarkable public health problem. […] For comparison, this figure also includes the MIC values of a LAM (lauroyl arginine methyl ester) surfactant that can be considered the single-stranded homologue of these geminis and the BAC (benzalkonium ammonium chloride), a quaternary ammonium surfactant widely used as antiseptic.
Antimicrobial tests were carried out against the following microorganisms: Bacillus subtilis ATCC 6633, Staphylococcus epidermidis ATCC 12228, Staphylococcus aureus ATCC 29213, Listeria monocytogenes ATCC 15313, Enterococcus faecalis ATCC 29212, Escherichia coli ATCC 25922, Acinetobacter baumannii ATCC 19606, Klebsiella aerogenes ATCC 13048, methicillin-resistant Staphylococcus aureus ATCC 43300 and Pseudomonas aeruginosa PAO1. […] The growth of the microorganisms was determined visually after incubation for 24 h at 37 °C. […]

[7] = tested on: methicillin-resistant Staphylococcus aureus (MRSA) ATCC 43300 biofilm; experiment: Biofilm inhibition, crystal violet; assay type: cell-based; details: 24 h contact, 2–128 μg/mL tested
Procedure: (§4) The ability of MRSA and P. aeruginosa to form biofilms on propylene surfaces in the presence of bis-Args was determined. The two bacterial cells were kept in contact with the gemini surfactants at different concentrations from 2 to 128 μg/mL for 24 h. Then, the percentage of biofilm inhibition was determined.
as §2
(§5) Biofilm inhibition procedure: 100 μL of the gemini surfactant at different concentration values was added to each well in a 96-well microplate, then, 100 μL of the diluted bacterial suspension was added to the wells. Two-fold serial dilutions of the gemini surfactants to be tested were used (2–128 μg/mL). Microtiter plates were incubated at 37 °C for 24 h. Spent growth media was then discarded and biofilm was fixed with 150 μL methanol for 10 min. After the plates were air dried, the biofilms were stained with 50 μL of 0.1 of % crystal violet for 25 min. The plates were rinsed with water and then 150 μL of 96% ethanol containing 10% acetic acid was added to all 96-well plates to dissolve the remaining crystal violet-stained biofilm. The absorbance value was recorded at 570 nm. Each assay was performed at least three times and the results were averaged.

[8] = tested on: Pseudomonas aeruginosa PAO1 biofilm; experiment: Biofilm inhibition, crystal violet; assay type: cell-based; details: P. aeruginosa PAO1, 24 h contact, 2–128 μg/mL tested
Procedure: as §4, §2, §5

[9] = tested on: squamous cell carcinoma (A431); experiment: Cell viability, NRU assay; assay type: cell-based; details: A431, surfactant in solution at 35.6 µg/mL, 24 h
Procedure: (§6) The immortal human keratinocyte (HaCaT) and the squamous cell carcinoma (A431) were obtained from Celltec, University of Barcelona. The cells were grown in DMEM medium (4.5 g/L glucose) supplemented with 10% (v/v) FBS, 2 mM L-glutamine, 100 U/mL of penicillin and 100 μg/mL of streptomycin at 37 °C under 5% CO2. Cells were routinely cultured in 75 cm^2 culture flasks and were trypsinized using trypsin-EDTA when reached approximately 80% of confluence.
(§7) HaCaT cells (1 × 10^5 cells/mL) and A431 cells (5 × 10^4 cells/mL) were grown at the defined densities into the central 60 wells of a 96-well microplate. Cells were incubated for 24 h under 5% CO2 at 37 °C. The medium was then removed and the cells were incubated with the surfactants (100 μL), previously diluted 1:1 (v/v), reaching a concentration of […] in DMEM medium supplemented with 5% FBS using two different colorimetric methods for quantification, as follows.
(§8) The accumulation of the neutral red dye in the lysosomes of viable, undamaged cells constitutes the basis of the neutral red uptake (NRU) assay. After the cells were incubated for 24 h with the corresponding systems at 35.6 µg/mL, the medium was removed and the surfactants´ solutions were incubated for 3 h with the NRU dye solution (50 μg/mL) dissolved in the medium without FBS and phenol red (Lonza). Cells were then washed with sterile PBS, followed by the addition of 100 μL of a solution containing 50% ethanol absolute and 1% acetic acid in distilled water to extract the non-adhered dye. The microplates were then stirred for 5 min at 25 °C to promote the dissolution. Finally, the absorbance of the resulting solutions was measured at λ = 550 nm using a Bio-Rad 550 microplate reader (Hercules, CA, USA).

[10] = Cell viability, NRU assay; assay type: cell-based, human; details: human, HaCaT cells (immortal human keratinocytes); NRU, HaCaT, surfactant in solution at 35.6 µg/mL, 24 h; read-out: cellular viability
Procedure: as §6, §7, §8

[11] = design: method as in doi:10.1021/la981295l; details: cited from earlier work; remark: listed apart in the source
bovine hyaluronidase = experiment: Hyaluronidase inhibitory activity; assay type: biochemical; details: negative inhibition values
Procedure: The hyaluronidase inhibitory activity was performed according to the method used by Altinyay et al. with some modifications. Briefly, a work solution containing bovine hyaluronidase (7900 units/mL) in 0.1 M acetate buffer (pH 3.6) was prepared. Fifty microliters of the work solution were mixed 1:1 with the surfactants’ solution in 5% DMSO. For the negative control, 50 μL of 5% DMSO was used, while EGCG was used as positive control. After 20 min of incubation at 37 °C, 50 μL of calcium chloride (12.5 mM) was added to the mixture and again incubated for 20 min at 37 °C. At that point, 250 μL sodium hyaluronate (1.2 mg/mL) was added and incubated for 40 min at 37 °C. After incubation, the mixture was treated with 50 μL of 0.4 M NaOH and 100 μL of 0.2 M sodium borate and then incubated for 3 min in a boiling water bath. After cooling to room temperature, 1.4 mL of p-dimethylaminobenzaldehyde solution was added to the reaction mixture, being further incubated at 37 °C for 20 min. The resulting colored solution was measured at λ = 585 nm (PerkinElmer-Lambda 35, Brazil). The hyaluronidase inhibitory activity of each sample was calculated according to the following formula:(3) Hyaluronidase inhibitory activity %=A1−A2/A1×100 where A1 and A2 represent the absorbance in the absence and presence of the testing sample, respectively.

[12] = molecular target: porcine pancreatic elastase (Sus scrofa, UniProt P00772); experiment: Elastase inhibitory assay; assay type: biochemical; details: 40 µL of 1000 µg/mL stock; EGCG 250 μM
Chain of porcine pancreatic elastase (P00772 27-266): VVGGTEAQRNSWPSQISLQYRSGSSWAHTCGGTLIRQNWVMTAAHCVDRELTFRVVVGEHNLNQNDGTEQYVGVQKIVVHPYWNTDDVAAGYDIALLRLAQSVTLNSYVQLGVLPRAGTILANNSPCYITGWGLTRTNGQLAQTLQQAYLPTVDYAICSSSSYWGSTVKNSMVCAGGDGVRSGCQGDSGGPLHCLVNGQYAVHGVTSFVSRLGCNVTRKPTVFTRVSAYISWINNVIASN
Procedure: The elastase inhibition was tested according to the method described by […] et al.. First, a stock solution of each surfactant at 1000 μg/mL was prepared in sterile ultrapure water. A stock solution of porcine pancreatic elastase at 3.33 mg/mL in sterile ultrapure water was also prepared. The substrate […] (Ala) 3-p-nitroanilide was dissolved in 0.2 mM Tris-HCl buffer solution (pH 8.0). The samples (40 μL) were then diluted and incubated together with the enzyme for 15 min prior to the substrate addition. Negative control was sterile ultrapure water, while EGCG (250 μM or 0.114 mg/mL) was used as the positive control. The absorbance at λ = 410 nm was measured immediately after the substrate addition and continuously during the next 2 h using an Elx800 Microplate Reader (Biotek®). […] The anti-elastase activity (in %), determined in triplicate, was calculated according to the following equation:(2) Elastase inhibitory activity %=A1-A2/A1×100 where A1 and A2 represent the absorbance in the absence and presence of the testing samples, respectively.

SMILES | CMC (mM) Conductivity [1] | pKap [2] | CMC (mM) Fluorescence [3] | preformed biofilm eradicated [4] | preformed biofilm eradicated [5] | antimicrobial activity (MIC), in words [6] | concentration that inhibits biofilm formation [7] [µg/mL] | concentration that inhibits biofilm formation [8] [µg/mL] | cytotoxicity, in words [9] | viability at 24 h, 35.6 µg/mL [10] [%] | CMC (mM) Surface Tension [11] | γcmc ([11]; surface tension at the cmc) | increase of hyaluronidase enzymatic activity (bovine hyaluronidase) [%] | anti-elastase activity (inhibition) [12] [%]
CCCCCCCCCCCC(=O)NC(CCCNC(=N)N)C(=O)NCC(O)CNC(=O)C(CCCNC(=N)N)NC(=O)CCCCCCCCCCC (stereo not drawn) [C3(LA)2OH, Bis (N^α-lauroyl arginine) (2-hydroxy-1,3-propane) diamide] | 0.6 * mM | 10.9 | 0.6 * mM | – | – | – | – | – | – | – | – | – | – | –
CCCCCCCC(=O)NC(CCCNC(=N)N)C(=O)NCCCNC(=O)C(CCCNC(=N)N)NC(=O)CCCCCCC (stereo not drawn) [C3(OA)2] | – | – | 8 * mM | less than 30% | less than 30% | lowest antimicrobial efficiency (highest MIC values) | 128 | 128 | – | – | – | – | – | –
CCCCCCCCCCCC(=O)NC(CCCNC(=N)N)C(=O)NCCCCCCNC(=O)C(CCCNC(=N)N)NC(=O)CCCCCCCCCCC (stereo not drawn) [C6(LA)2] | 0.4 * mM | 10.5 | 0.4 * mM | – | – | – | – | – | did not cause any apparent cytotoxicity | 99.3 | 0.002 * mM | 30 * mN/m | 47.2 | 10.5

From paper PMC10536132, “Arginine Gemini-Based Surfactants for Antimicrobial and Antibiofilm Applications: Molecular Interactions, Skin-Related Anti-Enzymatic Activity and Cytotoxicity” (Molecules, 2023)
